From patent publication US20150105252A1, “SUBSTITUTED PYRAZOLES AS HERBICIDES” (E I DU PONT DE NEMOURS AND COMPANY, priority 2013, published 2015)

Legend:
[1] = test system: foxtail, giant; experiment: Test C postemergence; assay type: in vivo, Setaria faberii
Procedure, shortened: (§1)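 Seeds were sown in a loam soil–sand blend and sprayed preemergence with compounds formulated in a non-phytotoxic solvent mixture containing surfactant. Postemergence plants, grown in peat/vermiculite medium to 2–18 cm (1- to 4-leaf stage), received the same formulation. After 13 to 15 days in a greenhouse, injury was rated visually against controls (0 = no effect, 100 = complete control).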

[2] = test system: pigweed; experiment: Test C postemergence; assay type: in vivo, Amaranthus retroflexus; details: postemergence
Procedure, shortened: as §1

[3] = test system: blackgrass; experiment: Test C preemergence; assay type: in vivo, Alopecurus myosuroides; details: preemergence
Procedure, shortened: as §1

[4] = test system: lambsquarters; experiment: Test C preemergence; assay type: in vivo, Chenopodium album; details: preemergence
Procedure, shortened: as §1

[5] = test system: nutsedge, yellow; experiment: Test C postemergence; assay type: in vivo, Cyperus esculentus
Procedure, shortened: as §1

[6] = test system: wheat; experiment: Test C preemergence; assay type: in vivo, Triticum aestivum; details: preemergence
Procedure, shortened: as §1

[7] = test system: ryegrass, Italian; experiment: Test C postemergence; assay type: in vivo, Lolium multiflorum; details: postemergence
Procedure, shortened: as §1

[8] = test system: oat, wild; experiment: Test C postemergence; assay type: in vivo, Avena fatua
Procedure, shortened: as §1

[9] = test system: barnyardgrass; experiment: Test B flood; assay type: in vivo, Echinochloa crus-galli; details: 250 g ai/ha, visual rating on 0 to 100 scale (0 no effect, 100 complete control), 13 to 15 days
Procedure, shortened: (§2)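 Flooded-pot test: compound dosed into 3 cm of standing water above soil when plants had two leaves. Visual control ratings (0–100) versus untreated plants after 13–15 d.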

[10] = test system: nutsedge, yellow; experiment: Test C preemergence; assay type: in vivo, Cyperus esculentus; details: preemergence
Procedure, shortened: as §1

[11] = test system: johnsongrass; experiment: Test C postemergence; assay type: in vivo, Sorghum halepense
Procedure, shortened: as §1

[12] = test system: rice; experiment: Test B flood; assay type: in vivo, Oryza sativa; details: 250 g ai/ha, visual rating on 0 to 100 scale (0 no effect, 100 complete control), 13 to 15 days
Procedure, shortened: as §2

[13] = test system: morningglory; experiment: Test C postemergence; assay type: in vivo, Ipomoea coccinea
Procedure, shortened: as §1

[14] = Postemergence, 31 g ai/ha, visually evaluated after 13 to 15 days
[15] = postemergence, 62 g ai/ha, scale 0 to 100
[16] = postemergence, 250 g ai/ha, scale 0 to 100 (0 no effect, 100 complete control)
[17] = postemergence, 125 g ai/ha, scale 0 to 100, 0 no effect, 100 complete control
[18] = 250 g ai/ha, scale 0 to 100 (0 no effect, 100 complete control)
[19] = 125 g ai/ha, scale 0 to 100, 0 no effect, 100 complete control
[20] = 31 g ai/ha, visual rating, scale 0 to 100 (0 no effect, 100 complete control), 13 to 15 days
[21] = 62 g ai/ha, scale 0 to 100 (0 no effect, 100 complete control), 13 to 15 days
[22] = 125 g ai/ha, 13 to 15 days, scale 0 to 100, 0 = no effect, 100 = complete control
[23] = 250 g ai/ha, scale 0 to 100, 0 is no effect, 100 is complete control

Compound: CCOc1cc(C(=O)NOC(C)C)nn1Cc1ccnc(C(F)(F)F)c1 [Compound 153]
- Plant response rating (scale of 0 to 100 where 0 is no effect and 100 is complete control), Foxtail, Giant [1, 14]: 5
- Foxtail, Giant plant response rating [1, 15]: 5
- Plant response rating, Foxtail, Giant [1, 16]: 65
- Plant response rating, Foxtail, Giant [1, 17]: 10
- Pigweed plant response rating ([2]; 62 g ai/ha, scale 0 to 100): 25
- Plant response rating, Pigweed [2, 18]: 80
- Plant response rating, Pigweed [2, 19]: 25
- Blackgrass plant response rating [3, 20]: 80
- Blackgrass plant response rating [3, 21]: 90
- Plant response rating, Blackgrass [3, 22]: 90
- Blackgrass plant response rating [3, 23]: 90
- Lambsquarters plant response rating [4, 20]: 85
- Lambsquarters plant response rating [4, 21]: 98
- Plant response rating, Lambsquarters [4, 22]: 98
- Lambsquarters plant response rating [4, 23]: 100
- Plant response rating (scale of 0 to 100 where 0 is no effect and 100 is complete control), Nutsedge, Yellow [5, 14]: 5
- Nutsedge, Yellow plant response rating [5, 15]: 5
- Plant response rating, Nutsedge, Yellow [5, 16]: 15
- Plant response rating, Nutsedge, Yellow [5, 17]: 20
- Wheat plant response rating [6, 20]: 15
- Wheat plant response rating [6, 21]: 85
- Plant response rating, Wheat [6, 22]: 90
- Wheat plant response rating [6, 23]: 90
- Plant response rating, Ryegrass, Italian [7, 18]: 5
- Plant response rating, Ryegrass, Italian [7, 19]: 5
- Plant response rating (scale of 0 to 100 where 0 is no effect and 100 is complete control), Oat, Wild [8, 14]: 5
- Oat, Wild plant response rating [8, 15]: 10
- Plant response rating, Oat, Wild [8, 16]: 20
- Plant response rating, Oat, Wild [8, 17]: 5
- Plant response rating, Barnyardgrass [9]: 45
- Nutsedge, Yellow plant response rating [10, 20]: 20
- Nutsedge, Yellow plant response rating [10, 21]: 75
- Plant response rating, Nutsedge, Yellow [10, 22]: 85
- Nutsedge, Yellow plant response rating [10, 23]: 95
- Plant response rating (scale of 0 to 100 where 0 is no effect and 100 is complete control), Johnsongrass [11, 14]: 0
- Johnsongrass plant response rating [11, 15]: 5
- Plant response rating, Johnsongrass [11, 16]: 5
- Plant response rating, Johnsongrass [11, 17]: 0
- Plant response rating, Rice [12]: 40
- Plant response rating (scale of 0 to 100 where 0 is no effect and 100 is complete control), Morningglory [13, 14]: 65
- Morningglory plant response rating [13, 15]: 85
- Plant response rating, Morningglory [13, 16]: 80
- Plant response rating, Morningglory [13, 17]: 70
